# Test results reported in patent publication US6974799B2, “Compositions containing mixtures of tetrapeptides and tripeptides” (Sederma S.A.S., priority 2003, dated 2005).
# No end group written: not given here. *: point of attachment. Oleoyl = CCCCCCCC/C=C\CCCCCCCC(=O)*; Palmitoyl = CCCCCCCCCCCCCCCC(=O)*
# Key:
# [1] = test system: Collagen I; experiment: Collagen I in supernatant of normal human skin fibroblasts, Elisa; assay type: cell-based; settings: for Collagen I: Percentage of variation with respect to solvent: 3 × 10E−4% ascorbic acid, 3 days; for collagen I stimulation (in words): alone or in combination; for collagen I stimulation (in words) / effect on biomolecule synthesis under these experimental conditions (in words): Table 1 conditions
# Procedure: In generating the data in Table 1, normal human skin fibroblasts were cultivated in 24 well-plates in DMEM with 10% of Fetal Calf Serum (“FCS”) during 24 h, then rinsed. The cells then received the products to be tested in a medium DMEM without FCS (“Fetal Calf Serum”) containing ascorbic acid. The contact of cells with product was carried out during 3 days, then supernatants was taken and frozen. Each test includes a negative control without solvent, a control solvent and a positive control (10^−6% of Transforming Growth Factor-β (“TGF-β”)). Each determination was carried out n=3. Several repetitions independent of the tests can be made. Assaying of the interesting molecules was carried out by Elisa (Collagen I & IV; Fibronectine) or by a colorimetric method (hyaluronic acid).
# (§1) Normal human skin fibroblasts are cultivated in 24 well-plates in DMEM with 10% of FCS during 24 h, then rinsed. The cells then received the products to be tested in a medium DMEM without FCS containing ascorbic acid. The contact of cells with product was carried out during 3 days, then supernatants are taken and frozen. Each test included a negative control without solvent, a control solvent and a positive control (10^E-6% of TGF-β). Each determination was carried out n=3. Several repetitions independent of the tests were made. Assaying of the interesting molecules was carried out by Elisa (Collagen I & IV; Fibronectine) and by a calorimetric method (hyaluronic acid).
# [2] = test system: Hyaluronic Acid; experiment: Hyaluronic acid in supernatant of normal human skin fibroblasts, colorimetric method; assay type: cell-based; settings: 3 × 10E−4% ascorbic acid, 3 days
# Procedure: (§2) In generating the data in Table 1, normal human skin fibroblasts were cultivated in 24 well-plates in DMEM with 10% of Fetal Calf Serum (“FCS”) during 24 h, then rinsed. The cells then received the products to be tested in a medium DMEM without FCS (“Fetal Calf Serum”) containing ascorbic acid. The contact of cells with product was carried out during 3 days, then supernatants was taken and frozen. Each test includes a negative control without solvent, a control solvent and a positive control (10^−6% of Transforming Growth Factor-β (“TGF-β”)). Each determination was carried out n=3. Several repetitions independent of the tests can be made. Assaying of the interesting molecules was carried out by Elisa (Collagen I & IV; Fibronectine) or by a colorimetric method (hyaluronic acid). […] Higher concentrations were not tested because of cytotoxicity, and the other biomolecules were not assayed (n.t.=not tested) because of the lack of initial response in collagen I stimulation, which is the essential, primary parameter.
# as §1
# [3] = test system: Collagen IV; experiment: Collagen IV in supernatant of normal human skin fibroblasts, Elisa; assay type: cell-based; settings: 3 × 10E−4% ascorbic acid, 3 days
# Procedure: as §2, §1
# [4] = test system: Fibronectin; experiment: Fibronectin in supernatant of normal human skin fibroblasts, Elisa; assay type: cell-based; settings: 3 × 10E−4% ascorbic acid, 3 days
# Procedure: as §2, §1
# [5] = test system: collagen; settings: background statement on EYELISS components; cited from earlier work
# [6] = test system: collagen; experiment: Increase in synthesis of collagen (in vitro), fibroblasts of human skin, ELISA; assay type: cell-based; settings: 72 hours
# Procedure: Fibroblasts of human skin are incubated for 72 hours in two culture mediums enriched in vitamin C (1.5 and 15 ppm), in the presence of the peptide N-palmitoyl-Gly-Gln-Pro-Arg (SEQ ID NO: 3) at two different concentrations, 2.5 ppm and 3.6 ppm. After this incubation, the media is collected and cell viability is evaluated by MTT assay. The measurement of collagen is then carried out by ELISA in each cell lysate. Tests were done in triplicate.
# In parallel, negative controls should be carried out under the same conditions, but in the absence of the peptides.
# The following results, shown in Table 2, give the increase of collagen synthesis compared to the results obtained in the blank tests (without peptide): […]
substance,measurement,setting,value
Acetyl-YGG,Collagen I: Percentage of variation with respect to solvent,[1]; 1 ppm,−2%
same,Collagen I: Percentage of variation with respect to solvent,[1]; 3 ppm,+5%
same,Collagen I: Percentage of variation with respect to solvent,[1]; 5 ppm,−11%
same,collagen I stimulation (in words),[1],do not show collagen I stimulation
"Transforming Growth Factor-β [TGF-β, reference compound]",Hyaluronic Acid: Percentage of variation with respect to solvent,[2]; 10^E−6%,+43%
same,Collagen IV: Percentage of variation with respect to solvent,[3]; 10^E−6%,+4%
same,Fibronectin: Percentage of variation with respect to solvent,[4]; 10^E−6%,+176%
"Pal-YGGF (Palmitoyl-YGGF) [palmitoyl derivative of YGGF=Tyr-Gly-Gly-Phe, fragment of enkephaline]",Collagen I: Percentage of variation with respect to solvent,[1]; 1 ppm,+5%
same,Collagen I: Percentage of variation with respect to solvent,[1]; 3 ppm,−6%
same,Collagen I: Percentage of variation with respect to solvent,[1]; 5 ppm,+4%
same,collagen I stimulation (in words),[1],do not show collagen I stimulation
N-Palmitoyl-Gly-His-Lys [Pal GHK],Collagen I: Percentage of variation with respect to solvent,[1]; 1 ppm,+9%
same,Collagen I: Percentage of variation with respect to solvent,[1]; 3 ppm,−11%
same,Collagen I: Percentage of variation with respect to solvent,[1]; 5 ppm,+11%
same,Collagen I: Percentage of variation with respect to solvent,"[1]; 5 ppm, listed as N-Palmitoyl-Gly-His-Lys",+11%
same,Collagen I: Percentage of variation with respect to solvent,[1]; 7.3 ppm,−9%
same,Collagen I: Percentage of variation with respect to solvent,"[1]; 7.3 ppm, listed as tripeptide",reduction in synthesis
same,effect on biomolecule synthesis under these experimental conditions (in words),[1],essentially no effect
same,Hyaluronic Acid: Percentage of variation with respect to solvent,[2]; 1 ppm,+3%
same,Hyaluronic Acid: Percentage of variation with respect to solvent,[2]; 3 ppm,+11%
same,Hyaluronic Acid: Percentage of variation with respect to solvent,[2]; 5 ppm,0%
same,Hyaluronic Acid: Percentage of variation with respect to solvent,[2]; 7.3 ppm,−1%
same,Collagen IV: Percentage of variation with respect to solvent,[3]; 1 ppm,+5%
same,Collagen IV: Percentage of variation with respect to solvent,[3]; 3 ppm,−4%
same,Collagen IV: Percentage of variation with respect to solvent,[3]; 5 ppm,+6%
same,Collagen IV: Percentage of variation with respect to solvent,[3]; 7.3 ppm,−9%
same,Fibronectin: Percentage of variation with respect to solvent,[4]; 1 ppm,+8%
same,Fibronectin: Percentage of variation with respect to solvent,[4]; 3 ppm,+2%
same,Fibronectin: Percentage of variation with respect to solvent,[4]; 5 ppm,−15%
same,Fibronectin: Percentage of variation with respect to solvent,[4]; 7.3 ppm,+13%
Oleoyl-RGDS [oleoyl derivative of RGDS=Arg-Gly-Asp-Ser],Collagen I: Percentage of variation with respect to solvent,[1]; 1 ppm,−7%
same,Collagen I: Percentage of variation with respect to solvent,[1]; 3 ppm,−2%
same,collagen I stimulation (in words),[1],do not show collagen I stimulation
Oleoyl-RGD,Collagen I: Percentage of variation with respect to solvent,[1]; 1 ppm,+5%
same,Collagen I: Percentage of variation with respect to solvent,[1]; 3 ppm,−3%
same,collagen I stimulation (in words),[1],do not show collagen I stimulation
Val-Trp,collagen stimulating activity (in words),[5],no significant collagen stimulating activity
"N-Palmitoyl-Gly-Gln-Pro-Arg (Palmitoyl-GQPR) [Pal GQPR, 500 ppm solution sold as RIGIN by SEDERMA]",increase of collagen synthesis compared to blank tests (without peptide),"[6]; peptide 2.5 ppm, Vitamin C 1.5 ppm",+10%
same,increase of collagen synthesis compared to blank tests (without peptide),"[6]; peptide 2.5 ppm, Vitamin C 15 ppm",+27%
same,increase of collagen synthesis compared to blank tests (without peptide),"[6]; peptide 3.6 ppm, Vitamin C 1.5 ppm",+29%
same,increase of collagen synthesis compared to blank tests (without peptide),"[6]; peptide 3.6 ppm, Vitamin C 15 ppm",+42%
same,Collagen I: Percentage of variation with respect to solvent,[1]; 0.5 ppm,+4%
same,Collagen I: Percentage of variation with respect to solvent,[1]; 1.5 ppm,−1%
same,Collagen I: Percentage of variation with respect to solvent,[1]; 2.5 ppm,+19%
same,Collagen I: Percentage of variation with respect to solvent,"[1]; 2.5 ppm, listed as N-Palmitoyl-Gly-Gln-Pro-Arg",+19%
same,Collagen I: Percentage of variation with respect to solvent,[1]; 3.64 ppm,+65%
same,Collagen I: Percentage of variation with respect to solvent,"[1]; 3.64 ppm, listed as tetrapeptide",+65%
same,effect on biomolecule synthesis under these experimental conditions (in words),[1],stimulating effect
same,Hyaluronic Acid: Percentage of variation with respect to solvent,[2]; 0.5 ppm,−4%
same,Hyaluronic Acid: Percentage of variation with respect to solvent,[2]; 1.5 ppm,+9%
same,Hyaluronic Acid: Percentage of variation with respect to solvent,[2]; 2.5 ppm,−13%
same,Hyaluronic Acid: Percentage of variation with respect to solvent,[2]; 3.64 ppm,−1%
same,Collagen IV: Percentage of variation with respect to solvent,[3]; 0.5 ppm,+5%
same,Collagen IV: Percentage of variation with respect to solvent,[3]; 1.5 ppm,−8%
same,Collagen IV: Percentage of variation with respect to solvent,[3]; 2.5 ppm,−5%
same,Collagen IV: Percentage of variation with respect to solvent,[3]; 3.64 ppm,−14%
same,Fibronectin: Percentage of variation with respect to solvent,[4]; 0.5 ppm,+1%
same,Fibronectin: Percentage of variation with respect to solvent,[4]; 1.5 ppm,+15%
same,Fibronectin: Percentage of variation with respect to solvent,[4]; 2.5 ppm,+35%
same,Fibronectin: Percentage of variation with respect to solvent,[4]; 3.64 ppm,+56%
"N-Palmitoyl-Lys-Thr-Thr-Lys-Ser (Palmitoyl-KTTKS) [Pal KTTKS, commercially successful pentapeptide, MATRIXYL, available from SEDERMA, reference compound]",Collagen I: Percentage of variation with respect to solvent,[1]; 1 ppm,+8%
same,Collagen I: Percentage of variation with respect to solvent,[1]; 2 ppm,+30%
same,Collagen I: Percentage of variation with respect to solvent,[1]; 4 ppm,+48%
same,Collagen I: Percentage of variation with respect to solvent,[1]; 8 ppm,+93%
same,Hyaluronic Acid: Percentage of variation with respect to solvent,[2]; 1 ppm,+3%
same,Hyaluronic Acid: Percentage of variation with respect to solvent,[2]; 2 ppm,+26%
same,Hyaluronic Acid: Percentage of variation with respect to solvent,[2]; 4 ppm,+28%
same,Hyaluronic Acid: Percentage of variation with respect to solvent,[2]; 8 ppm,+31%
same,Collagen IV: Percentage of variation with respect to solvent,[3]; 1 ppm,+6%
same,Collagen IV: Percentage of variation with respect to solvent,[3]; 2 ppm,+12%
same,Collagen IV: Percentage of variation with respect to solvent,[3]; 4 ppm,+15%
same,Collagen IV: Percentage of variation with respect to solvent,[3]; 8 ppm,+22%
same,Fibronectin: Percentage of variation with respect to solvent,[4]; 1 ppm,+24%
same,Fibronectin: Percentage of variation with respect to solvent,[4]; 2 ppm,+20%
same,Fibronectin: Percentage of variation with respect to solvent,[4]; 4 ppm,+74%
same,Fibronectin: Percentage of variation with respect to solvent,[4]; 8 ppm,+100%
